Data on 8 molecules can be found in patent US9284345B2 (priority 2007, dated 2016).

Experiment [1] deals with Shionogi mouse mammary carcinoma cells. In words: cells. The experiment is classed as cell-based. Conditions: for Ki: read-out: Shionogi cells Antiandrogenic activity Ki.
The test system of another experiment is Immature Rat CX + DHT. Put plainly: animal or person. It is filed as in vivo. The following applies: po; for change in vivo at 0.1 mg / change in vivo at 0.5 mg: Rattus norvegicus, 168 h.
Another experiment concerns Immature Rat CX. Conditions: for In Vivo Agonist % Change vs CX (DHT = +100%) SV / In Vivo Agonist % Change vs CX (DHT = +100%) VP: po.
In another experiment the target is T1, Human Androgen Receptor (Homo sapiens, UniProt P10275).
T1 construct: expressed in transfected cells; host or cells: HEK-293 cells stably transfected with the pCMVneo-hAR plasmid (G-418 selection); cytosol used
T1 sequence (P10275 1-920): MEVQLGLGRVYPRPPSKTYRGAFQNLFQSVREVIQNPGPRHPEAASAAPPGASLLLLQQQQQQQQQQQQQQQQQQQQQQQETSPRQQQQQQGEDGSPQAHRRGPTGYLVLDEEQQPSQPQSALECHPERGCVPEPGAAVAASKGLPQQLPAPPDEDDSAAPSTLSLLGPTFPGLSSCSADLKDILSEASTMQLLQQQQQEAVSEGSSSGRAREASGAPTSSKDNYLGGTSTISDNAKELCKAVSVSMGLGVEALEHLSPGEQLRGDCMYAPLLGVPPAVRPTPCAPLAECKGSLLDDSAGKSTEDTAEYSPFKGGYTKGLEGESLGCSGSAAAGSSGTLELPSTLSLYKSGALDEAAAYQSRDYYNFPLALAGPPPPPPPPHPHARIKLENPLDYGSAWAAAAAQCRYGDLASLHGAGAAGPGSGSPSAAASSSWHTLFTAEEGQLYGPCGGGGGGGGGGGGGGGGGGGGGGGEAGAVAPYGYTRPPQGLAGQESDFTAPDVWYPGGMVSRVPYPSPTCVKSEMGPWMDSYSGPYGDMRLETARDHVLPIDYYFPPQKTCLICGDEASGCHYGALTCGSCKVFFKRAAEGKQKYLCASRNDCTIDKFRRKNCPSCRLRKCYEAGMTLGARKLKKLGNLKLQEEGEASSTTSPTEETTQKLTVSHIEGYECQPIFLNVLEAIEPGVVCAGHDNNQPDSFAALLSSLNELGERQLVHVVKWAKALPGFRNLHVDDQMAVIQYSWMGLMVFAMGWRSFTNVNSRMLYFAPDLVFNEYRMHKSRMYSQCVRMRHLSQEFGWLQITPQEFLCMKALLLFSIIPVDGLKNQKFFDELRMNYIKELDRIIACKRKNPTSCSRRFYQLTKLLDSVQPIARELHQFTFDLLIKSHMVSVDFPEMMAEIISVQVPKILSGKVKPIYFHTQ
It is filed as binding.

Where [2] appears, read: read-out: In Vivo Antagonist % Change vs DHT (CX = −100%) SV.
The mark [3] stands for this setting: read-out: In Vivo Antagonist % Change vs DHT (CX = −100%) VP.

In general, Ki refers to the dissociation constant of the complex between target and ligand, obtained from inhibition or displacement.

Like-named read-outs stand apart in the source and are kept apart here.

For `C[C@]12CCC3c4ccc(C#N)c(F)c4CCC3C1CC[C@@]2(O)Cc1ccncc1F` (stereo partly drawn) [EM-8455], in experiment [1], the “Shionogi cells Antiandrogenic activity Ki OH-Flu/Ki compound” value is on record as 3.1 and the Ki is 1.9 nM. Besides, the change in vivo at 0.1 mg in the experiment with Immature Rat CX + DHT (setting [2]) was -85 ± 4%. Also, the change in vivo at 0.1 mg in the experiment on Immature Rat CX + DHT (setting [3]) is -49 ± 3%. In the experiment on Immature Rat CX, the “In Vivo Agonist % Change vs CX (DHT = +100%) SV” value is on record as “+1 ± 2%” and the “In Vivo Agonist % Change vs CX (DHT = +100%) VP” value stood at 0%. For the same molecule, at Human Androgen Receptor, the “Human Androgen Receptor Binding RBA (%) R1881 = 100%” value is listed as 9.1%.

As for `C[C@]12CCC3c4ccc(C#N)c(Cl)c4CCC3C1CC[C@@]2(O)Cc1cc[n+]([O-])cc1F` (stereo partly drawn) [EM-5987], the Ki in experiment [1] worked out at 0.35 ± 0.15 nM. Besides, the change in vivo at 0.5 mg in the experiment on Immature Rat CX + DHT (setting [2]) is -83%; with Immature Rat CX + DHT (setting [3]), -69%. In addition, the “Human Androgen Receptor Binding RBA (%) R1881 = 100%” value at Human Androgen Receptor came to 6.8 ± 1.7%.

Take `Cc1cnccc1C[C@]1(O)CCC2C3CCc4c(ccc(C#N)c4F)C3CC[C@@]21C` (stereo partly drawn) [EM-8504]: in experiment [1], the “Shionogi cells Antiandrogenic activity Ki OH-Flu/Ki compound” value is given as 7.5 and the Ki was found to be 2.5 nM. Besides, the change in vivo at 0.1 mg with Immature Rat CX + DHT (setting [2]) was -75 ± 2%. For the same molecule, in the experiment on Immature Rat CX + DHT (setting [3]), the change in vivo at 0.1 mg was -51 ± 13%. In addition, the “Human Androgen Receptor Binding RBA (%) R1881 = 100%” value at Human Androgen Receptor was found to be 6.1%.

Turning to `C[C@]12CCC3c4ccc(C#N)c(Cl)c4CCC3C1CCC[C@@]2(O)Cc1ccncc1` (stereo partly drawn) [EM-5943], in experiment [1], the Ki amounted to 2.1 ± 1.8 nM. Further, in the experiment with Immature Rat CX, the “In Vivo Agonist % Change vs CX (DHT = +100%) SV” value was “+3 ± 4%” and the “In Vivo Agonist % Change vs CX (DHT = +100%) VP” value is listed as “+2 ± 2%”. Moreover, at Human Androgen Receptor, the “Human Androgen Receptor Binding RBA (%) R1881 = 100%” value was determined as 26%.

Regarding `C[C@]12CCC3c4ccc(C#N)c(F)c4CCC3C1CC[C@@]2(O)Cc1ccncc1` (stereo partly drawn) [EM-5855], in experiment [1], the “Shionogi cells Antiandrogenic activity Ki OH-Flu/Ki compound” value was determined as 11 ± 1 and the Ki is 1 ± 0.2 nM. For the same molecule, in the experiment with Immature Rat CX, the “In Vivo Agonist % Change vs CX (DHT = +100%) SV” value is “[1 ± 4] %” and the “In Vivo Agonist % Change vs CX (DHT = +100%) VP” value is “[2 ± 1] %”. Moreover, the “Human Androgen Receptor Binding RBA (%) R1881 = 100%” value at Human Androgen Receptor was 8.2 ± 0.5%.

In the case of `C[C@H]1C[C@@]2(C)C(CC[C@@]2(O)Cc2ccncc2F)C2CCc3c(ccc(C#N)c3F)C21` (stereo partly drawn) [EM-6594], in experiment [1], the “% of stim of basal at 10^−7M (% over basal)” value was “+224%” and the “% of stim of basal at 10^−7 M (DHT = 100%)” value was “+63%”. Also, the “% of inh of DHT at 10^−7 M (Basal = 100%)” value in experiment [1] (0.0003 µM) was “+37%”. Besides, in the experiment with Immature Rat CX + DHT (rat, in vivo), the “In Vivo Anti-A Rat CX + DHT % change vs DHT (CX CONT = −100%) SV” value was “[−69 ± 4] %” and the “In Vivo Anti-A Rat CX + DHT % change vs DHT (CX CONT = −100%) VP” value is “[−56 ± 4] %”. In the experiment on Immature Rat CX, the “In Vivo Agonist Rat CX % change vs CX (DHT CONT = +100%) Bulbo” value was “+97 ± 19%”, the “In Vivo Agonist Rat CX % change vs CX (DHT CONT = +100%) SV” value is given as “+13 ± 2%” and the “In Vivo Agonist Rat CX % change vs CX (DHT CONT = +100%) VP” value is recorded as “+28 ± 7%”. Besides, on Human Androgen Receptor, the “Human Androgen Receptor Binding RBA (%) R1881 = 100%” value is 292%.

In the case of `C[C@]12CCC3c4ccc(C#N)cc4CCC3C1CC[C@@]2(O)Cc1ccc(-c2ccncc2)cc1` (stereo partly drawn) [EM-4240], in experiment [1], the “Shionogi cells Antiandrogenic activity Ki OH-Flu/Ki compound” value was 1.4 and the Ki is 24 nM. In addition, in the experiment with Immature Rat CX + DHT (setting [2]), the change in vivo at 0.1 mg is -58 ± 2% and the change in vivo at 0.5 mg was -85%. Besides, in the experiment on Immature Rat CX + DHT (setting [3]), the change in vivo at 0.1 mg is -46 ± 9% and the change in vivo at 0.5 mg was -52%. For the same molecule, in the experiment with Immature Rat CX, the “In Vivo Agonist % Change vs CX (DHT = +100%) SV” value is reported as “+3 ± 1%” and the “In Vivo Agonist % Change vs CX (DHT = +100%) VP” value is recorded as “+12 ± 3%”. The “Human Androgen Receptor Binding RBA (%) R1881 = 100%” value on Human Androgen Receptor is recorded as 110%.

Turning to `C[C@]12CCC3c4ccc(C#N)c(F)c4CCC3C1CC[C@@]2(O)Cc1ccncc1Cl` (stereo partly drawn) [EM-8632], in experiment [1], the “Shionogi cells Antiandrogenic activity Ki OH-Flu/Ki compound” value was found to be 2.1 and the Ki was found to be 4.1 nM. Further, in the experiment on Immature Rat CX + DHT (rat, in vivo), the “In Vivo Antagonist % Change vs DHT (CX = −100%) SV” value is on record as −74 ± 3% and the “In Vivo Antagonist % Change vs DHT (CX = −100%) VP” value is −43 ± 6%. Moreover, the “Human Androgen Receptor Binding RBA (%) R1881 = 100%” value at Human Androgen Receptor amounted to 47%.
